# In patent US20030148267A1, “Screening assay for hepatitis C virus antiviral agents” (priority 2001, published 2003):
# “And” between values parts separate entries of the source, which are not always exact repeats. Identical values can stand only once. “Also recorded” adds a separate entry of the source.
# Assays:
# [1] = test system: HCV (−) RNA synthesis; assay: HCV (−) strand RNA synthesis in binary HCV expression system (RNase protection assay, strand-specific RT-PCR); type: cell-based, hepatitis C virus (genotype 1a, strain H77); details: for HCV (−) strand results with other timing of the drug: drug given 0 and 12 hours before vTF7-3 infection instead of 20 hours; for HCV replicative strand synthesis: the two RBV doses (50 and 400)
# [2] = test system: HSV-1; assay: HSV-1 plaque formation in CV-1 cells; type: cell-based; details: the two RBV doses (50 and 400); listed as RBV
# [3] = test system: HCV RNA; assay: HCV RNA quasispecies analysis (mutation rate) in transfected/infected CV-1 cells; type: cell-based, hepatitis C virus (genotype 1a, strain H77); parameters: nucleotide substitutions / substitutions / error generation / dN/dS (nonsynonymous/synonymous mutation): unit of the concentration uncertain
# Experimental: Twenty-four hours post-vvT7, cells were lysed and RNA was extracted by TRIzol (GIBCO/BRL), DNase I-treated (Roche Molecular Biochemicals), and phenol-chloroform extracted.
# RT-PCR was performed for the 5′UTR, core, E2-HVR1, NS5A and NS5B regions using region-specific primers: […]
# RT was carried out on extracted RNA using AMV reverse transcriptase (Perkin-Elmer) using standard conditions. 25 cycles of PCR were carried out using 25 pmol each of the relevant sense and antisense primers, 0.5 mM of each dNTP, 1.5 mM MgCl2, and 0.5 units of Taq polymerase (Perkin-Elmer).
# Amplicons were cloned using the TOPO-PCR system (Invitrogen). Between 11 and 20 individual transformants corresponding to each region were sequenced bidirectionally by the ABI Prism automated sequencer, using primers flanking the insert. Synonymous and non-synonymous substitutions at variance from the parent pT7flHCV-Rz and pT7HCVDBglII-Rz sequences were determined and error generation rates calculated as nucleotide substitutions/total nucleotides sequenced. Sequences were aligned, and quasispecies diversity rates were compared between groups by using the statistical package SPSS 9.0.
# [4] = test system: HCV core protein
# [5] = RBV 50, E2 (HVR-1), listed as REV
molecule,measurement,setting,value
NC12CC3CC(CC(C3)C1)C2 [amantadine],HCV (−) strand synthesis,[1]; doses 1-100 mg/well,no activity; also recorded: Neither ribavirin nor amantadine demonstrated direct activity
same,HCV (−) strand results with other timing of the drug,[1],unchanged
NC(=O)c1ncn([C@@H]2O[C@H](CO)[C@@H](O)[C@H]2O)n1 [ribavirin],HSV-1 plaque formation in CV-1 cells,[2],activity against HSV-1
same,additional RNA inhibitory effects,[1]; RBV added to IFN,not seen
same,HCV (−) RNA synthesis,[1]; doses of 10-200 mg/well,No inhibitory effect; also recorded: Neither ribavirin nor amantadine demonstrated direct activity
same,HCV (−) strand results with other timing of the drug,[1],unchanged
same,HCV replicative strand synthesis,[1],no effect
same,HCV replicative strand synthesis,[1]; listed as RBV,no direct decrease
same,error generation throughout the viral genome compared with the lower dose,"[3]; 400 mM vs 50 mM, differences not statistically significant",to a lesser degree than that observed at the lower dose
same,nucleotide substitutions,"[3]; 50 (unit uncertain), HVR-1 region",15
same,substitutions,"[3]; 50 (unit uncertain), core region",12
same,error generation,"[3]; 400 (unit uncertain), across all regions",0.6-1.2 ×10^−3
same,Total Mutations (all regions),[3]; RBV 50,54
same,ERROR GEN RATE,"[3]; RBV 50, 5′UTR",0.7 X 10^−3
same,MUTANT CLONES (%),"[3]; RBV 50, 5′UTR",3(20%)
same,NONSYN/SYN SUBS,"[3]; RBV 50, 5′UTR",0/3
same,Transition Mutations T to C,"[3]; RBV 50, 5′UTR",2
same,NONSYN/SYN SUBS,"[3]; RBV 50, CORE",8/4
same,Transition Mutations C to T,"[3]; RBV 50, CORE",2
same,Transition Mutations T to C,"[3]; RBV 50, CORE",2
same,insertions (resulting in stop codons),"[3]; RBV 50, CORE",2 insertions
same,ERROR GEN RATE,"[3]; RBV 50, CORE, listed as RBV",1.9^1 X 10^−3
same,ERROR GEN RATE,"[3]; RBV 50, CORE, listed as REV",1.9^2 X 10^−3
same,MUTANT CLONES (%),"[3]; RBV 50, CORE, listed as REV",7(50%)
same,nt-insertions,"[3]; RBV 50, CORE, listed as REV",4 nt-insertions
same,NONSYN/SYN SUBS,"[3]; RBV 50, E2",11/4
same,Transition Mutations A to G,"[3]; RBV 50, E2",4
same,Transition Mutations C to T,"[3]; RBV 50, E2",1
same,Transition Mutations G to A,"[3]; RBV 50, E2",1
same,Transition Mutations T to C,"[3]; RBV 50, E2",6
same,insertions (resulting in stop codons),"[3]; RBV 50, E2",2 insertions
same,ERROR GEN RATE,"[3]; RBV 50, E2 (HVR-1), listed as RBV",1.7 X 10^−3 and 1.5^2 X 10^−3
same,ERROR GEN RATE,[3]; [5],1.5 X 10^−3
same,MUTANT CLONES (%),[3]; [5],12(60%)
same,nt-deletion,[3]; [5],1 nt-deletion
same,nt-insertion,[3]; [5],1 nt-insertion
same,ERROR GEN RATE,"[3]; RBV 50, NS5A",2.5^3 X 10^−3
same,MUTANT CLONES (%),"[3]; RBV 50, NS5A",5(20%)
same,NONSYN/SYN SUBS,"[3]; RBV 50, NS5A",12/0
same,Transition Mutations A to G,"[3]; RBV 50, NS5A",1
same,Transition Mutations C to T,"[3]; RBV 50, NS5A",1
same,ERROR GEN RATE,"[3]; RBV 50, NS5B",1.7 X 10^−3
same,Transition Mutations A to G,"[3]; RBV 50, NS5B",2
same,Transition Mutations C to T,"[3]; RBV 50, NS5B",1
same,Transition Mutations G to A,"[3]; RBV 50, NS5B",4
same,MUTANT CLONES (%),"[3]; RBV 50, NS5B, listed as RBV",7(39%)
same,NONSYN/SYN SUBS,"[3]; RBV 50, NS5B, listed as RBV",9/3
same,NONSYN/SYN SUBS,"[3]; RBV 50, NS5B, listed as REV",9/4
same,MUTANT CLONES (%),"[3]; RBV 50, all regions",29(33%)
same,Non-Syn/Syn Substitutions,"[3]; RBV 50, all regions",40/14
same,dose-responsiveness of mutations,[3]; RBV 50 vs 400,not a demonstrable dose-responsiveness
same,Total Mutations (all regions),[3]; RBV 400,31
same,ERROR GEN RATE,"[3]; RBV 400, 5′UTR",0.7 X 10^−3
same,MUTANT CLONES (%),"[3]; RBV 400, 5′UTR",3(21%)
same,NONSYN/SYN SUBS,"[3]; RBV 400, 5′UTR",0/3
same,Transition Mutations A to G,"[3]; RBV 400, 5′UTR",1
same,Transition Mutations G to A,"[3]; RBV 400, 5′UTR",1
same,MUTANT CLONES (%),"[3]; RBV 400, CORE",4(20%)
same,NONSYN/SYN SUBS,"[3]; RBV 400, CORE",5/1
same,Transition Mutations A to G,"[3]; RBV 400, CORE",1
same,Transition Mutations C to T,"[3]; RBV 400, CORE",2
same,Transition Mutations G to A,"[3]; RBV 400, CORE",1
same,Transition Mutations T to C,"[3]; RBV 400, CORE",1
same,ERROR GEN RATE,"[3]; RBV 400, CORE, listed as RBV",0.6^4 X 10^−3 and 0.6 X 10^−3
same,MUTANT CLONES (%),"[3]; RBV 400, E2",7(35%)
same,Transition Mutations A to G,"[3]; RBV 400, E2",3
same,Transition Mutations C to T,"[3]; RBV 400, E2",2
same,Transition Mutations G to A,"[3]; RBV 400, E2",1
same,Transition Mutations T to C,"[3]; RBV 400, E2",1
same,insertions,"[3]; RBV 400, E2",2 insertions
same,ERROR GEN RATE,"[3]; RBV 400, E2, listed as RBV",1.2 X 10^−3 and 1.2^4 X 10^−3
same,NONSYN/SYN SUBS,"[3]; RBV 400, E2, listed as RBV",9/4 and 7/5
same,ERROR GEN RATE,"[3]; RBV 400, NS5A",0.9 X 10^−3
same,MUTANT CLONES (%),"[3]; RBV 400, NS5A",2(14%)
same,NONSYN/SYN SUBS,"[3]; RBV 400, NS5A",3/0
same,ERROR GEN RATE,"[3]; RBV 400, NS5B",1 X 10^−3
same,MUTANT CLONES (%),"[3]; RBV 400, NS5B",6(35%)
same,NONSYN/SYN SUBS,"[3]; RBV 400, NS5B",5/2
same,Transition Mutations A to G,"[3]; RBV 400, NS5B",2
same,Transition Mutations G to A,"[3]; RBV 400, NS5B",1
same,Transition Mutations T to C,"[3]; RBV 400, NS5B",2
same,MUTANT CLONES (%),"[3]; RBV 400, all regions",25(30%)
same,Non-Syn/Syn Substitutions,"[3]; RBV 400, all regions",20/11
same,induction of mutations / error generation in the HCV genome,"[3]; RBV, all regions tested, listed as RBV",induces mutations across all regions; also recorded: increases error generation
same,dN/dS (nonsynonymous/synonymous mutation),"[3]; ribavirin at 50 (unit uncertain), all regions tested",2.85
interferon-α-2b,HCV core protein synthesis,[4],dose-responsive inhibition
same,HCV (−) RNA synthesis,"[1]; doses from 2000 to 15,000 units/well, CV-1 cells",dose-dependent inhibition
same,Total Mutations (all regions),"[3]; IFN 100,000",30
same,MUTANT CLONES (%),"[3]; IFN 100,000, all regions",19(30%)
same,Non-Syn/Syn Substitutions,"[3]; IFN 100,000, all regions",20/10
same,5′ UTR sequences,"[3]; IFN 100,000 U",remained invariant
same,ERROR GEN RATE,"[3]; IFN 100,000U, 5′UTR",0 X 10^−3
same,MUTANT CLONES (%),"[3]; IFN 100,000U, 5′UTR",0
same,NONSYN/SYN SUBS,"[3]; IFN 100,000U, 5′UTR",0
same,MUTANT CLONES (%),"[3]; IFN 100,000U, CORE",4(36%)
same,NONSYN/SYN SUBS,"[3]; IFN 100,000U, CORE",2/2
same,Transition Mutations T to C,"[3]; IFN 100,000U, CORE",2
same,ERROR GEN RATE,"[3]; IFN 100,000U, CORE, listed as IFN",0.8^5 X 10^−3 and 0.8 X 10^−3
same,ERROR GEN RATE,"[3]; IFN 100,000U, E2",2.8^6 X 10^−3
same,MUTANT CLONES (%),"[3]; IFN 100,000U, E2",10(83%)
same,NONSYN/SYN SUBS,"[3]; IFN 100,000U, E2",10/6
same,Transition Mutations A to G,"[3]; IFN 100,000U, E2",4
same,Transition Mutations C to T,"[3]; IFN 100,000U, E2",2
same,Transition Mutations T to C,"[3]; IFN 100,000U, E2",9
same,stop codon,"[3]; IFN 100,000U, E2",1
same,ERROR GEN RATE,"[3]; IFN 100,000U, NS5A",1.4 X 10^−3
same,MUTANT CLONES (%),"[3]; IFN 100,000U, NS5A",3(16%)
same,NONSYN/SYN SUBS,"[3]; IFN 100,000U, NS5A",5/1
same,Transition Mutations A to G,"[3]; IFN 100,000U, NS5A",1
same,Transition Mutations C to A,"[3]; IFN 100,000U, NS5A",2
same,Transition Mutations T to C,"[3]; IFN 100,000U, NS5A",1
same,ERROR GEN RATE,"[3]; IFN 100,000U, NS5B",0.9 X 10^−3
same,MUTANT CLONES (%),"[3]; IFN 100,000U, NS5B",2(18%)
same,NONSYN/SYN SUBS,"[3]; IFN 100,000U, NS5B",3/1
same,dN/dS (nonsynonymous/synonymous mutation),"[3]; IFN-α, all regions tested",2.0
